The assay relates to mice, P1798 lymphosarcoma sc, survival or tumor weight T/C. Briefly: NCI In Vivo Anticancer Drug Screen. Data for tumor model P1798 Lymphosarcoma (subcutaneous) in unknown mice. The protocol: The antitumor activity of compounds was measured in mice bearing transplantable tumors. Survival or tumor size were measured and the results are expressed as the measurement made in the treated group (T) divided by the measurement made in the vehicle treated control group (C). The tumor model used in this assay is P1798 Lymphosarcoma (subcutaneous) in unknown mice

The mark [1] stands for this setting: endpoint: mean tumor weight, dose: 5.0 mg/kg/injection, schedule: Q01DX010 (ip), vehicle: saline, higher = larger tumour.
Setting [2] is: endpoint: mean tumor weight, dose: 25.0 mg/kg/injection, schedule: Q01DX010 (ip), vehicle: saline, higher = larger tumour.
Setting [3] is: endpoint: mean tumor weight, dose: 50.0 mg/kg/injection, schedule: Q01DX010 (ip), vehicle: saline, higher = larger tumour.
[4] abbreviates: endpoint: mean tumor weight, dose: 100.0 mg/kg/injection, schedule: Q01DX010 (ip), vehicle: saline, higher = larger tumour.
[5] abbreviates: endpoint: mean tumor weight, dose: 12.5 mg/kg/injection, schedule: Q01DX010 (ip), vehicle: carboxymethylcellulose (CMC), higher = larger tumour.
Where [6] appears, read: endpoint: mean tumor weight, dose: 25.0 mg/kg/injection, schedule: Q01DX010 (ip), vehicle: carboxymethylcellulose (CMC), higher = larger tumour.
The mark [7] stands for this setting: endpoint: mean tumor weight, dose: 50.0 mg/kg/injection, schedule: Q01DX010 (ip), vehicle: carboxymethylcellulose (CMC), higher = larger tumour.
Where [8] appears, read: endpoint: mean tumor weight, dose: 100.0 mg/kg/injection, schedule: Q01DX010 (ip), vehicle: carboxymethylcellulose (CMC), higher = larger tumour.
Where [9] appears, read: endpoint: mean tumor weight, dose: 3.75 mg/kg/injection, schedule: Q01DX010 (ip), vehicle: carboxymethylcellulose (CMC), higher = larger tumour.
[10] abbreviates: endpoint: mean tumor weight, dose: 7.5 mg/kg/injection, schedule: Q01DX010 (ip), vehicle: carboxymethylcellulose (CMC), higher = larger tumour.

Structures are written as SMILES. Inconclusive results are not listed.

Consider `N[C@@H](Cc1ccc(N(CCCl)CCCl)cc1)C(=O)O`, for which the T/C reads like this: (endpoint: mean tumor weight, dose: 1.25 mg/kg/injection, schedule: Q01DX010 (ip), vehicle: saline, higher = larger tumour) 49 % of control; (endpoint: mean tumor weight, dose: 2.5 mg/kg/injection, schedule: Q01DX010 (ip), vehicle: saline, higher = larger tumour) 29 % of control; (endpoint: mean tumor weight, dose: 4.0 mg/kg/injection, schedule: Q01DX011 (ip), vehicle: carboxymethylcellulose (CMC), higher = larger tumour) 13 % of control; under setting [1], 16 % of control; (endpoint: median survival time, dose: 0.75 mg/kg/injection, schedule: Q01DX010 (sc), vehicle: saline, higher = longer survival) 112 % of control; (endpoint: median survival time, dose: 1.5 mg/kg/injection, schedule: Q01DX010 (sc), vehicle: saline, higher = longer survival) 104 % of control. The T/C is, setting by setting: (endpoint: median survival time, dose: 3.0 mg/kg/injection, schedule: Q01DX010 (sc), vehicle: saline, higher = longer survival) 75 % of control; (endpoint: median survival time, dose: 6.0 mg/kg/injection, schedule: Q01DX010 (sc), vehicle: saline, higher = longer survival) 52 % of control; (endpoint: median survival time, dose: 12.0 mg/kg/injection, schedule: Q01DX010 (sc), vehicle: saline, higher = longer survival) 26 % of control.

For `CC[C@]1(O)C[C@H]2CN(CCc3c([nH]c4ccccc34)[C@@](C(=O)OC)(c3cc4c(cc3OC)N(C=O)[C@H]3[C@@](O)(C(=O)OC)[C@H](OC(C)=O)[C@]5(CC)C=CCN6CC[C@]43[C@@H]65)C2)C1`, the T/C is 105 % of control (endpoint: mean tumor weight, dose: 0.01 mg/kg/injection, schedule: Q01DX010 (ip), vehicle: water, higher = larger tumour); 105 % of control (endpoint: mean tumor weight, dose: 0.03 mg/kg/injection, schedule: Q01DX010 (ip), vehicle: water, higher = larger tumour); 120 % of control (endpoint: mean tumor weight, dose: 0.1 mg/kg/injection, schedule: Q01DX001 (ip), vehicle: saline, higher = larger tumour); 45 % of control (endpoint: mean tumor weight, dose: 0.3 mg/kg/injection, schedule: Q01DX001 (ip), vehicle: saline, higher = larger tumour); 40 % of control (endpoint: mean tumor weight, dose: 0.5 mg/kg/injection, schedule: Q01DX001 (ip), vehicle: saline, higher = larger tumour); 10 % of control (endpoint: mean tumor weight, dose: 0.68 mg/kg/injection, schedule: Q01DX001 (ip), vehicle: saline, higher = larger tumour). For the same molecule, the T/C is 36 % of control (endpoint: mean tumor weight, dose: 0.7 mg/kg/injection, schedule: Q01DX001 (ip), vehicle: saline, higher = larger tumour); 3 % of control (endpoint: mean tumor weight, dose: 1.35 mg/kg/injection, schedule: Q01DX001 (ip), vehicle: saline, higher = larger tumour); 16 % of control (endpoint: mean tumor weight, dose: 125.0 micrograms/kg/injection, schedule: Q01DX010 (ip), vehicle: water, higher = larger tumour).

For `COS(C)(=O)=O`, the T/C runs as follows: (endpoint: mean tumor weight, dose: 12.5 mg/kg/injection, schedule: Q01DX010 (ip), vehicle: saline, higher = larger tumour) 98 % of control; under setting [2], 80 % of control; under setting [3], 81 % of control; under setting [4], 57 % of control.

With `C[C@]12CCC(=O)C=C1CC[C@H]1[C@@H]3CC[C@](O)(C(=O)CO)[C@@]3(C)C[C@H](O)[C@@]12F`, the T/C runs as follows: (endpoint: mean tumor weight, dose: 0.5 mg/kg/injection, schedule: Q01DX011 (sc), vehicle: steriod suspending solution, higher = larger tumour) 76 % of control; (endpoint: mean tumor weight, dose: 1.0 mg/kg/injection, schedule: Q01DX011 (sc), vehicle: steriod suspending solution, higher = larger tumour) 36 % of control; (endpoint: mean tumor weight, dose: 2.0 mg/kg/injection, schedule: Q01DX011 (sc), vehicle: steriod suspending solution, higher = larger tumour) 61 % of control; (endpoint: mean tumor weight, dose: 2.5 mg/kg/injection, schedule: Q01DX015 (ip), vehicle: carboxymethylcellulose (CMC), higher = larger tumour) 103 % of control; (endpoint: mean tumor weight, dose: 3.5 mg/kg/injection, schedule: Q01DX011 (sc), vehicle: steriod suspending solution, higher = larger tumour) 64 % of control; (endpoint: mean tumor weight, dose: 5.0 mg/kg/injection, schedule: Q01DX015 (ip), vehicle: carboxymethylcellulose (CMC), higher = larger tumour) 105 % of control.

`c1ccc(COCC[P+](c2ccccc2)(c2ccccc2)c2ccccc2)cc1`: the T/C was 53 % of control under setting [1] and 49 % of control (endpoint: mean tumor weight, dose: 8.0 mg/kg/injection, schedule: Q01DX010 (ip), vehicle: saline, higher = larger tumour).

`O=c1[nH]c2cc(Cl)c(Cl)cc2o1`: the T/C runs as follows: under setting [5], 78 % of control; under setting [6], 76 % of control; under setting [7], 117 % of control; under setting [8], 61 % of control.

Take `OCC1OC(n2cnc3c(=S)nc[nH]c32)C(O)C1O` (centres undefined): the T/C runs as follows: (endpoint: mean tumor weight, dose: 4.0 mg/kg/injection, schedule: Q01DX010 (ip), vehicle: carboxymethylcellulose (CMC), higher = larger tumour) 115 % of control; (endpoint: mean tumor weight, dose: 8.0 mg/kg/injection, schedule: Q01DX010 (ip), vehicle: carboxymethylcellulose (CMC), higher = larger tumour) 67 % of control; (endpoint: mean tumor weight, dose: 16.0 mg/kg/injection, schedule: Q01DX010 (ip), vehicle: carboxymethylcellulose (CMC), higher = larger tumour) 45 % of control; (endpoint: mean tumor weight, dose: 31.0 mg/kg/injection, schedule: Q01DX010 (ip), vehicle: carboxymethylcellulose (CMC), higher = larger tumour) 82 % of control.

Turning to `Cc1cc(N(CCCl)CCCl)ccc1N=Nc1ccccc1C(=O)O`, the T/C was 40 % of control under setting [9] and 26 % of control under setting [10].

For `Nc1nc(SCc2ccccc2)c2[nH]cnc2n1`, the T/C was 42 % of control (endpoint: mean tumor weight, dose: 4.7 mg/kg/injection, schedule: Q01DX010 (ip), vehicle: carboxymethylcellulose (CMC), higher = larger tumour) and 51 % of control (endpoint: mean tumor weight, dose: 9.4 mg/kg/injection, schedule: Q01DX010 (ip), vehicle: carboxymethylcellulose (CMC), higher = larger tumour).

With `CN(C)c1nc(N(C)C)nc(N(C)C)n1`, the T/C reads like this: (endpoint: mean tumor weight, dose: 62.5 mg/kg/injection, schedule: Q01DX010 (ip), vehicle: carboxymethylcellulose (CMC), higher = larger tumour) 119 % of control; (endpoint: mean tumor weight, dose: 250.0 mg/kg/injection, schedule: Q01DX010 (ip), vehicle: carboxymethylcellulose (CMC), higher = larger tumour) 88 % of control; (endpoint: mean tumor weight, dose: 500.0 mg/kg/injection, schedule: Q01DX010 (ip), vehicle: carboxymethylcellulose (CMC), higher = larger tumour) 106 % of control.

As to `S=P(N1CCOCC1)(N1CC1)N1CC1`, the T/C by setting is: (endpoint: mean tumor weight, dose: 6.25 mg/kg/injection, schedule: Q01DX010 (ip), vehicle: carboxymethylcellulose (CMC), higher = larger tumour) 82 % of control; under setting [5], 60 % of control.

For `C[C@H]1C(=O)O[C@@H]2CCN3CC=C(COC(=O)[C@](C)(O)[C@@]1(C)O)[C@H]23`, the T/C reads like this: under setting [9], 73 % of control; under setting [10], 68 % of control; (endpoint: mean tumor weight, dose: 15.0 mg/kg/injection, schedule: Q01DX010 (ip), vehicle: carboxymethylcellulose (CMC), higher = larger tumour) 44 % of control; (endpoint: mean tumor weight, dose: 30.0 mg/kg/injection, schedule: Q01DX010 (ip), vehicle: carboxymethylcellulose (CMC), higher = larger tumour) 23 % of control.

Take `O=[n+]1c2c(n([O-])c3ccccc31)-c1cccc3cccc-2c13`: the T/C under setting [2] was 84 % of control; the T/C under setting [3] was 37 % of control; the T/C under setting [4] is 36 % of control; the T/C (endpoint: mean tumor weight, dose: 200.0 mg/kg/injection, schedule: Q01DX010 (ip), vehicle: saline, higher = larger tumour) is 19 % of control.

As to `CCCCn1cnc2c(=S)nc[nH]c21`, the T/C runs as follows: under setting [7], 78 % of control; under setting [8], 43 % of control.

For `CCCCCCCCCCCCCCCCC(C(=O)O)C(O)(CC(=O)O)C(=O)O` (centres undefined), the T/C is 84 % of control under setting [5] and 87 % of control under setting [6].

The values above are taken from PubChem BioAssay AID290 (DTP/NCI, 2004).
